Assays:
Nematospiroides dubius = test: Use Example C: in vivo nematode test, Nematospiroides dubius in mice; conditions: oral
Method: Nematospiroides dubius in Mice
Mice were experimentally infected with nematodes of the species Nematospiroides dubius. Specifically, the mice were administered Nematospiroides dubius orally as 60 filariform larvae.
After the prepatency period had expired, the suspended active compounds of Example 2 were administered orally on day 12 after the infection.
(§1) Determination of the Activity:
The mice are selected on day 20 after the infection. The adult parasites in the Duodenum are counted by means of a compressorium. The success of treatment in the dose group is compared to the untreated control group.

Heterakis spumosa = test: Example D: in vivo nematode test, Heterakis spumosa in mice; conditions: oral
Method: Heterakis spumosa in Mice
Mice were experimentally infected with nematodes of the species Heterakis spumosa. Specifically, the mice were administered Heterakis spumosa orally as 90 embryonate eggs.
After the prepatency period had expired, the suspended active compounds of Example 2 were administered orally on day 46 after the infection.
as §1
The mice are selected on day 54 after the infection. The adult parasites are counted in the colon and caecum using a microscope. The success of treatment in the dose group is compared to the untreated control group.

[1] = ivermectin B1a/B1b 0.1 mg/kg alone

22,23-Dihydroavermectin B1a/B1b [Ivermectin B1a/B1b]
Reduction rate [%] (Nematospiroides dubius; [1]): 0% | Reduction rate [%] (Heterakis spumosa; [1]): <50%

O=[N+]([O-])NC1=NCCN1Cc1ccc(Cl)nc1 [Imidacloprid, 1-[(6-chloro-3-pyridinyl)methyl]-N-nitro-2-imidazolidinium]
Reduction rate [%] (Nematospiroides dubius; imidacloprid 25.0 mg/kg alone): 0% | Reduction rate [%] (Nematospiroides dubius; imidacloprid 50.0 mg/kg alone): 0% | Reduction rate [%] (Heterakis spumosa; imidacloprid 5.0 mg/kg alone): 0% | Reduction rate [%] (Heterakis spumosa; imidacloprid 10.0 mg/kg alone): 0% | Reduction rate [%] (Heterakis spumosa; imidacloprid 25.0 mg/kg alone): 0% | Reduction rate [%] (Heterakis spumosa; imidacloprid 50.0 mg/kg alone): 0%

From patent US20040014689A1, “Endoparaciticidal and ectoparasiticidal agents” (priority 1996, published 2004)
